What was measured:
FXR A291W mutation = assay: Reporter assay with mutated FXR; type: cell-based; settings: 1 μM, Fig. 8e
KK-Ay mice = assay: High-fat diet fed KK-Ay mice treated 14 days (liver histology, metabolic parameters, GTT, ITT); type: in vivo; settings: for insulin sensitivity (ITT) / glucose tolerance (GTT): KK-Ay mice treated 10 days; for insulin sensitivity (ITT): 1 U/kg insulin i.p.; for glucose tolerance (GTT): 1 g/kg glucose i.p.; for serum cholesterol level / serum triglyceride level / body weight / hepatic lipid / steatosis by H&E staining of liver sections / lipid accumulation by oil red O staining of liver sections / liver morphology (colour): KK-Ay mice; for serum cholesterol level / serum triglyceride level / body weight: 1.3 mg/kg i.p. 14 days; for body weight: versus vehicle, eprinomectin and moxidectin groups; for hepatic lipid / steatosis by H&E staining of liver sections / lipid accumulation by oil red O staining of liver sections / liver morphology (colour): high-fat diet, i.p. once daily 14 days, avermectin analogues 1.3 mg/kg, GW4064 30 mg/kg
Method: To further confirm the lipid accumulation, we performed oil red O staining of the frozen liver sections (Fig. 2c).
(§1) 10 weeks age KK-Ay mice and C57BL/6J, homozygous FXR deficient (FXR^–/–) mice were maintained under environmentally controlled conditions with free access to standard chow diet and water as described previously. Animal experiments were conducted in the barrier facility of the Laboratory Animal Center, Xiamen University, approved by the Institutional Animal Use and Care Committee of Xiamen University, China, and the methods were carried out in accordance with the approved guidelines. Mice were fed with high fat diet containing 60% fat, 20% protein and 20% carbohydrate (Research Diets, D12492, New Brunswick, USA), and the food intake were measured every second day. […] After 6 h fasting, mice were weighed and sacrificed. Livers were weighed and taken photos, and part of each liver was fixed in 4% paraformaldehyde. Liver histology characterization was analyzed by haematoxylin and eosin (H&E) staining with paraffin-embedded sections by standard procedures. Other tissues were collected and frozen in liquid nitrogen for use, and serums were collected to measure metabolite parameters.
(§2) Fresh liver tissues were embedded in optimum cutting temperature compound (OCT) and cryosectioned. The sections were fixed in 4% paraformaldehyde in PBS, and were stained with 0.3% oil red O according to standard procedures.
Mice treated with compounds for 10 days were fasted for 6 h with free access to water. For the glucose tolerance test (GTT), 1 g/kg of glucose was i.p. injected and blood glucose was measured with the Accu-Check Performa (Roche Applied Science, Mannheim, Germany) at 0, 30, 60, 90, 120,150 and 180 min. For the insulin tolerance test (ITT), 1 U/kg of recombinant human insulin (Novolin 30R; Novo Nordisk, Bagsvaerd, Denmark) was i.p. injected, and blood glucose was measured at 0, 30, 60, 120 and 150 min after insulin injection.
(§3) Serum glucose was analyzed using glucose oxidase method (Applygen, Beijing, China). Serum cholesterol and triglyceride were analyzed using Cholesterol Assay Kit and Triglyceride Assay Kit (Bioassay Systems, USA), respectively. Liver triglyceride was analyzed using Tissue triglyceride assay kit (Applygen, Beijing, China).

[1] = target: T1, FXR ligand binding domain (LBD) (Homo sapiens, UniProt Q96RI1); assay: AlphaScreen cofactor binding assay; type: biochemical; settings: for coactivators recruitment by FXR (biotin-SRC1–2, biotin-SRC2–3): 0.5 μM compound, Fig. 4a
T1 construct: made in house; host or cells: E. coli BL21 (DE3)
T1 sequence (Q96RI1 262-486 limits assumed): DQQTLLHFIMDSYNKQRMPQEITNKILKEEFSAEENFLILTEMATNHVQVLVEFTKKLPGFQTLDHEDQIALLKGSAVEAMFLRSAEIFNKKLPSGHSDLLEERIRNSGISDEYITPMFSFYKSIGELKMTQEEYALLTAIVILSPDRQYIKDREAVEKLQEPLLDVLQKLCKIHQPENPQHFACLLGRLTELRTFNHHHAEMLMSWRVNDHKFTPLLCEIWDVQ
Method: The binding of the cofactor peptide motifs to FXR LBD in response to ligands was determined by AlphaScreen assays using a hexahistidine detection kit from Perkins-Elmer (USA) as described before. The FXR LBD protein was purified as described previously.

[2] = tested on: genes related with lipid metabolism / FXR target genes; assay: Real-time PCR of hepatic mRNA levels in treated KK-Ay mice; type: in vivo; settings: KK-Ay mice liver
Method: as §1
Total RNA was isolated using Tissue RNA kit (Omega Bio-Tek, GA). The first strand cDNA were obtained by TAKARA reverse transcription kit. Real-time quantitative PCR were performed on a CFX96™ Real-Time PCR Detection System (Bio-Rad) using SYBR Premix Ex TaqTM (TAKARA). Relative mRNA expression levels were normalized to actin levels.

FXR LBD = tested on: T2, FXR LBD; assay: Peptide profiling / peptide competition AlphaScreen assay; type: biochemical; settings: 16 unlabelled peptides (20 μM) competing with biotin-SRC2-3; 1 μM compound
T2 construct: made in house; host or cells: E. coli BL21 (DE3)
Text: To determine whether there is a conformational difference of FXR with various avermectin analogues, we performed peptide-profiling experiments using a panel of 16 unlabelled peptides selected from both coactivators and corepressors to compete off the binding of the third LXXLL motif of SRC2 (SRC2–3) to FXR in response to the binding of avermectin analogues (Fig. 5).
Values are the means ± SEM of three independent experiments.

Wild type C57BL/6J mice = assay: High-fat diet fed wild type mice treated with compounds; type: in vivo; settings: for serum cholesterol levels / serum glucose levels: in a FXR dependent manner (WT versus KO); for amount of lipid in liver sections (oil red O): wild type mice, high-fat diet, versus vehicle
Text: To reaffirm that the function of avermectin analogues on lipid metabolism is by directly targeting FXR signaling, we employed wild type mice and FXR gene knockout mice, both fed with high-fat diet, to study the FXR dependency of physiological effects of these avermectin analogues. […] The expression pattern of FXR target genes SHP, BSEP, solute carrier family 51 beta subunit (OSTβ) and AKR1B7 in primary hepatocytes from wild type mice and FXR gene knockout mice further confirmed the FXR-dependent manner of avermectin analogues (Supplementary Fig. S5).
as §1, §2, §3

FXR = target: T3, FXR (Homo sapiens, UniProt Q96RI1); assay: Cell-based reporter assay, transient transfection of COS-7 cells (EcRE reporter); settings: for transcriptional activity of FXR: 1 μM compounds, Fig. 4b, EcRE reporter
T3 sequence (Q96RI1 1-472 isoform Q96RI1-2): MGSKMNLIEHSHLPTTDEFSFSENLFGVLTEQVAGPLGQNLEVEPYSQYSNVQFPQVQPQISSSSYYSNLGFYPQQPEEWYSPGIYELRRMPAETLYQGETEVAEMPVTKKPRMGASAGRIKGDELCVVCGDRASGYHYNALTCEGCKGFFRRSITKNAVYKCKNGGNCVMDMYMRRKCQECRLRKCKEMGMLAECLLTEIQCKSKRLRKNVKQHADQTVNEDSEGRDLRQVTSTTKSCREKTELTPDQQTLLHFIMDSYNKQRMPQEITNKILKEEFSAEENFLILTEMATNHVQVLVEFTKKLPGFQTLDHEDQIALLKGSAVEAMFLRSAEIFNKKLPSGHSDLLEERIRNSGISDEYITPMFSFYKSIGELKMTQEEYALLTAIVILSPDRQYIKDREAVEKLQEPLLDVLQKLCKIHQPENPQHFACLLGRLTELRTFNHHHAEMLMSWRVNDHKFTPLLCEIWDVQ
Text: Since ligands can regulate the transcriptional activity of nuclear receptors by binding into their ligand binding pocket, we performed cell-based reporter assay to validate the results from AlphaScreen.
COS-7 cells were cotransfected with plasmids enco ding full-length nuclear receptors and their cognate response reporters as follows: human FXR with EcRE- Luc, human LXR(α and β) with LXRE- luc; human VDR with VDRE-luc; Human RXRα with RXRE- luc; human PPARs (α, δ, and γ) with PPRE-Luc; human GR o r PR with the MMTV-Luc; hum an RARα or RARβ with βRE- Luc; human PXR and CAR with PBRE-luc. 5 h after transfection,
were normalized to renilla activity co-transfected as an internal control.

FXR H447F mutation = assay: Reporter assay with mutated FXR; type: cell-based; settings: 1 μM, Fig. 8e
Text: For H447F mutation, the corresponding residue of histidine with a side chain of imidazole group was replaced by the nonpolar phenylalanine with a side chain of benzene ring (Fig. 8c).

[3] = tested on: other nuclear receptors tested; assay: Receptor-specific transactivation reporter assay in COS-7 cells; type: cell-based, human; settings: 10 μM avermectins, Supplementary Fig. S3
Method: 30 Receptor-specific ligand
rifampicin; CAR, 5 μM CITCO. […] Luciferase activities
independent experiments. *p<0.001 versus DMSO control.

diabetic mice = settings: cited from earlier work
mice = tested on: mice; design: method as in PMID 19072826; settings: cited from earlier work

Row | SMILES | transcriptional activity of A291W mutated FXR (FXR A291W mutation) | insulin sensitivity (ITT) (KK-Ay mice) | glucose tolerance (GTT) (KK-Ay mice) | serum cholesterol level (KK-Ay mice) | serum triglyceride level (KK-Ay mice) | body weight (KK-Ay mice) | hepatic lipid / steatosis by H&E staining of liver sections (KK-Ay mice) | lipid accumulation by oil red O staining of liver sections (KK-Ay mice) | liver morphology (colour) (KK-Ay mice) | coactivators recruitment by FXR (biotin-SRC1–2, biotin-SRC2–3) [1] | hepatic expression of BSEP [2] | hepatic expression of SHP [2] | hepatic level of CYP8b1 [2] | hepatic mRNA level of AKR1B7 [2] | hepatic mRNA level of SCD1 [2] | hepatic mRNA level of SREBP-1c [2] | serum cholesterol levels (Wild type C57BL/6J mice) | serum glucose levels (Wild type C57BL/6J mice) | amount of lipid in liver sections (oil red O) (Wild type C57BL/6J mice) | transcriptional activity of FXR (FXR) | also measured
1 | CO[C@H]1C[C@H](O[C@H]2[C@H](C)O[C@@H](O[C@@H]3/C(C)=C/C[C@@H]4C[C@@H](C[C@]5(C=C[C@H](C)[C@@H](C6CCCCC6)O5)O4)OC(=O)[C@@H]4C=C(C)[C@@H](O)[C@H]5OC/C(=C\C=C\[C@@H]3C)[C@]54O)C[C@@H]2OC)O[C@@H](C)[C@@H]1O [doramectin] | abolished the transcriptional activity | significantly improved | significantly improved | significantly decreased | significantly decreased | significantly lower | nearly completely reverse the liver from hepatic steatosis | dramatically reduced the lipid accumulation | much more fresh red tissue | strongly promoted | induced | induced | decreased | dramatically induced | substantially decreased | substantially decreased | lowered | lowered | significantly reduced the amount of lipid | selectively activated | recruitment of nuclear receptor corepressor (NCoR)-2 by FXR ([1]; Fig. 4e): induced the recruitment; peptide profile of ligand-bound FXR (FXR LBD): identical peptide profiles as the ivermectin; ligand character for FXR (FXR; concluded from AlphaScreen and reporter assays): partial agonists; transcriptional activity of H447F mutated FXR (FXR H447F mutation): increased the FXR activity; impact on other nuclear receptors tested (transactivation) [3]: no substantial impact
2 | CCC(C)C1OC2(C=CC1C)CC1CC(CC=C(C)C(OC3CC(OC)C(OC4CC(OC)C(O)C(C)O4)C(C)O3)C(C)C=CC=C3COC4C(O)C(C)=CC(C(=O)O1)C34O)O2 (stereo not drawn) [abamectin] |  | significantly improved | significantly improved | significantly decreased | significantly decreased | significantly lower | nearly completely reverse the liver from hepatic steatosis | dramatically reduced the lipid accumulation | much more fresh red tissue |  |  |  |  |  |  |  | lowered | lowered | significantly reduced the amount of lipid |  | impact on other nuclear receptors tested (transactivation) [3]: no substantial impact
3 | CCC(C)C1OC2(CCC1C)CC1CC(CC=C(C)C(OC3CC(OC)C(OC4CC(OC)C(O)C(C)O4)C(C)O3)C(C)C=CC=C3COC4C(O)C(C)=CC(C(=O)O1)C34O)O2 (stereo not drawn) [ivermectin] | abolished the transcriptional activity |  |  | significantly decreased | significantly decreased | significantly lower | nearly completely reverse the liver from hepatic steatosis | dramatically reduced the lipid accumulation | much more fresh red tissue | strongly promoted | induced | induced | decreased | dramatically induced | substantially decreased | substantially decreased |  |  | significantly reduced the amount of lipid |  | serum cholesterol level (diabetic mice): decreased; serum glucose level (diabetic mice): decreased
4 | C[C@H](CCC(=O)O)[C@H]1CC[C@H]2[C@@H]3[C@H](O)C[C@@H]4C[C@H](O)CC[C@]4(C)[C@H]3CC[C@]12C [CDCA, chenodeoxycholic acid] |  |  |  |  |  |  |  |  |  |  |  |  |  |  |  |  |  |  |  |  | liver effect of CDCA-rich diet (mice): induce liver hypertrophy
5 | CO/N=C1\C[C@]2(C[C@@H]3C[C@@H](C/C=C(\C)C[C@@H](C)/C=C/C=C4\CO[C@@H]5[C@H](O)C(C)=C[C@@H](C(=O)O3)[C@]45O)O2)O[C@H](/C(C)=C/C(C)C)[C@H]1C [moxidectin] |  |  |  | did not | did not |  |  |  | grease white | failed to induce | did not display these regulations | did not display these regulations | did not display these regulations | did not display these regulations | did not display these regulations | did not display these regulations |  |  |  | failed to activate | 

From publication PMC4664883, “Selective targeting of nuclear receptor FXR by avermectin analogues with therapeutic effects on nonalcoholic fatty liver disease” (Scientific Reports, 2015)
